For one experiment, the target named is LSD1 (Homo sapiens, UniProt O60341). Kind of experiment: LSD1 fluorescence coupling enzyme assay (HRP/Amplex Red, H3(1-21)K4me2 peptide), 10-dose IC50. It is filed as biochemical. To be noted: 10 μM histone H3(1-21)K4me2 peptide substrate, 3-fold serial dilution from 100 μM. In short, it runs like this:
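Fluorescence coupled assay: LSD1 demethylation of 10 μM H3(1-21)K4me2 peptide produces FAD-dependent H2O2, detected via HRP/Amplex Red as resorufin (Ex/Em 535/590 nm). IC50 from 10 doses, 3-fold serial dilution from 100 μM, in duplicate.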

A further experiment relates to MV4;11 cells. Description: Cell Titer-Glo cell growth inhibition in MV4;11 cell line (Day 5 / Day 10). It counts as cell-based. In short, it runs like this: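 Cells seeded at 3750/well and treated with a 10-point, 4-fold dose curve from 0 to 50 µM; ATP-based luminescence viability read at Day 5. A portion is reseeded into fresh compound and media for 5 more days, read at Day 10; IC50 derived from luminescence.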

[1] abbreviates: Homo sapiens, MV4-11, 120 h, Day 5, read-out: Cell Titer-Glo IC50 (5 d).
[2] abbreviates: Homo sapiens, MV4-11, 240 h, Day 10, read-out: Cell Titer-Glo IC50 (10 d).

The structures appear in SMILES notation. Where two headings read alike, the source gives them in different places. Where only a bound is given, the exact number is not on record here.

As to `N#Cc1ccc(-c2cc(NC[C@@H]3CCC[C@@H](N)C3)nn2-c2ccc3nn(CCO)cc3c2)cc1F` [Example 70, 4-(3-((((1R,3R)-3-aminocyclohexyl)methyl)amino)-1-(2-(2-hydroxyethyl)-2H-indazol-5-yl)-1H-pyrazol-5-yl)-2-fluorobenzonitrile], the IC50 was under 0.5 µM at LSD1, 1 to 10 µM in the experiment on MV4;11 cells (setting [1]) and under 0.5 µM with MV4;11 cells (setting [2]).

For the compound `COc1ccc(-n2nc(NCC3CCCNCC3)cc2-c2ccc(C#N)c(F)c2)cc1` (single isomer, unassigned) [Example 22b, 4-(3-((azepan-4-ylmethyl)amino)-1-(4-methoxyphenyl)-1H-pyrazol-5-yl)-2-fluorobenzonitrile], the 50% inhibitory concentration (IC50) at LSD1 is under 0.5 µM; in the experiment on MV4;11 cells (Day 5, read-out: Cell Titer-Glo IC50 (5 d)), 0.5 to 1 µM; in the experiment with MV4;11 cells (Day 10, read-out: Cell Titer-Glo IC50 (10 d)), under 0.5 µM.

Take `Cn1cc(-c2ccc(-n3nc(NC[C@H]4CCC[C@H](N)C4)cc3-c3ccc(C#N)c(F)c3)cc2)cn1` [Example 54, 4-(3-((((1S,3S)-3-aminocyclohexyl)methyl)amino)-1-(4-(1-methyl-1H-pyrazol-4-yl)phenyl)-1H-pyrazol-5-yl)-2-fluorobenzonitrile]: the half-maximal inhibitory concentration (IC50) against LSD1, in the experiment on MV4;11 cells (setting [1]) and in the experiment on MV4;11 cells (setting [2]) was under 0.5 µM each time.

Take `Cn1nnc2cc(-n3nc(NC[C@H]4CCC[C@H](N)C4)cc3-c3ccc(C#N)c(F)c3)ccc21` [Example 68, 4-(3-((((1S,3S)-3-aminocyclohexyl)methyl)amino)-1-(1-methyl-1H-benzo[d][1,2,3]triazol-5-yl)-1H-pyrazol-5-yl)-2-fluorobenzonitrile]: the 50% inhibitory concentration (IC50) against LSD1, in the experiment on MV4;11 cells (setting [1]) and in the experiment with MV4;11 cells (setting [2]) was under 0.5 µM throughout.

Regarding `N#Cc1ccc(-c2cc(NC[C@H]3CCCNCC3)nn2-c2ccc(N3CCS(=O)(=O)CC3)cc2)cc1F` (single isomer, unassigned) [Example 26b], the half-maximal inhibitory concentration (IC50) against LSD1, with MV4;11 cells (setting [1]) and in the experiment on MV4;11 cells (setting [2]) was under 0.5 µM each time.

As for `N#Cc1ccc(-c2cc(NC[C@H]3CCC[C@H](N)C3)nn2-c2ccc(-c3cn[nH]c3)cc2)cc1F` [Example 52, 4-(1-(4-(1H-pyrazol-4-yl)phenyl)-3-((((1S,3S)-3-aminocyclohexyl)methyl)amino)-1H-pyrazol-5-yl)-2-fluorobenzonitrile], the IC50 on LSD1, with MV4;11 cells (setting [1]) and with MV4;11 cells (setting [2]) was under 0.5 µM throughout.

For the compound `N#Cc1ccc(-c2cc(NCC3CCCNCC3)nn2-c2ccc(N3CCN(CCO)CC3)cc2)cc1F` (stereo not drawn) [Example 27, 4-(3-((azepan-4-ylmethyl)amino)-1-(4-(4-(2-hydroxyethyl)piperazin-1-yl)phenyl)-1H-pyrazol-5-yl)-2-fluorobenzonitrile], the concentration for half-maximal inhibition (IC50) on LSD1, with MV4;11 cells (setting [1]) and in the experiment with MV4;11 cells (setting [2]) was under 0.5 µM throughout.

Regarding `COc1ccc(-n2nc(NCC3CCCC(CN)C3)cc2-c2ccc(C#N)c(F)c2)cc1` (stereo not drawn) [Example 28, 4-(3-(((-3-(aminomethyl)cyclohexyl)methyl)amino)-1-(4-methoxyphenyl)-1H-pyrazol-5-yl)-2-fluorobenzonitrile], the results for the IC50 against LSD1, in the experiment on MV4;11 cells (setting [1]) and with MV4;11 cells (setting [2]) were 0.5 to 1 µM, 1 to 10 µM and 1 to 10 µM, respectively.

As to `COc1ccc(-n2nc(NC[C@H]3CCC[C@@H](CN)C3)cc2-c2ccc(C#N)c(F)c2)cc1` [Example 77, 4-(3-((((1S,3R)-3-(aminomethyl)cyclohexyl)methyl)amino)-1-(4-methoxyphenyl)-1H-pyrazol-5-yl)-2-fluorobenzonitrile], the IC50 against LSD1, in the experiment on MV4;11 cells (setting [1]) and in the experiment with MV4;11 cells (setting [2]) was 1 to 10 µM each time.

On to `CS(=O)(=O)N1CCN(c2cccc(-n3nc(NC[C@H]4CCC[C@H](N)C4)cc3-c3ccc(C#N)c(F)c3)c2)CC1` [Example 49, 4-(3-((((1S,3S)-3-aminocyclohexyl)methyl)amino)-1-(3-(4-(methylsulfonyl)piperazin-1-yl)phenyl)-1H-pyrazol-5-yl)-2-fluorobenzonitrile], for which the half-inhibitory concentration (IC50) is 1 to 10 µM against LSD1, 1 to 10 µM in the experiment on MV4;11 cells (setting [1]) and under 0.5 µM in the experiment on MV4;11 cells (setting [2]).

Broadly, the IC50 is the concentration needed to halve the response being measured.

The values above are taken from patent publication US20250032454A1, “KDM1A INHIBITORS FOR THE TREATMENT OF DISEASE” (Imago Biosciences, Inc., priority 2021, published 2025).
